Each structure is given as a SMILES string.

For one assay, the species on record is Homo sapiens. Kind of assay: Potency index, ratio of miglitol IC50 to compound IC50 for alpha glucosidase (unknown origin).
Conditions: not given; call rule not given here
On to `O=C(CCc1ccc(O)cc1)Nc1ccc(CCC(=O)N2C[C@H](O)[C@@H](O)C2)cc1`, for which the Ratio IC50 was 3 to 4. Still for that read-out and setting: the result for `O=C(CCc1ccc(O)cc1)Nc1ccc(CCC(=O)N2C[C@@H](O)[C@H](O)C2)cc1` reads 3 to 4; that for `Nc1ccc(CCC(=O)N2C[C@@H](O)[C@H](O)C2)cc1`, 3 to 4.

Another assay is filed under the species Homo sapiens. Kind of assay: Potency index, ratio of voglibose IC50 to compound IC50 for alpha glucosidase (unknown origin).
Conditions: not given
With `O=C(CCc1ccc(O)cc1)Nc1ccc(CCC(=O)N2C[C@H](O)[C@@H](O)C2)cc1`, the Ratio IC50 was 3 to 4. The same measure, in the same setting: under `O=C(CCc1ccc(O)cc1)Nc1ccc(CCC(=O)N2C[C@@H](O)[C@H](O)C2)cc1` stands 3 to 4.

As for `Nc1ccc(CCC(=O)N2C[C@@H](O)[C@H](O)C2)cc1`, the Ratio IC50 is 3 to 4.

Tested on in a further assay: not listed separately
Kind of assay: Inhibition of alpha glucosidase (unknown origin) using PNPG as substrate preincubated for 15 to 20 mins followed by substrate addition measured after 45 to 60 mins by spectrophotometric method.
Conditions: not given
What is called IC50 is the concentration needed to halve the response being measured. Regarding `O=C(/C=C/c1ccsc1)N1C[C@H](O)[C@@H](O)C1`, the half-inhibitory concentration (IC50) entry is on record as “Not Active”. Still for that read-out and setting: under `O=C(CCc1ccc(F)cc1)Nc1ccc(CCC(=O)N2C[C@H](O)[C@@H](O)C2)cc1` stands “Not Active”; under `CC(C)(C)OC(=O)Nc1ccc(CCC(=O)N2C[C@H](O)[C@@H](O)C2)cc1`, “Not Active”; under `O=C(CCc1ccc(C(F)(F)F)cc1)Nc1ccc(CCC(=O)N2C[C@H](O)[C@@H](O)C2)cc1`, “Not Active”.

Turning to `CC(C)(C)OC(=O)Nc1ccc(CCC(=O)N2C[C@@H](O)[C@H](O)C2)cc1`, the concentration for half-maximal inhibition (IC50) entry is given as “Not Active”. Still for that read-out and setting: under `O=S(=O)(c1ccc(OC(F)(F)F)cc1)N1C[C@@H](O)[C@H](O)C1` stands “Active”. For the molecule `O=C(CCc1ccc([N+](=O)[O-])cc1)N1C[C@@H](O)[C@H](O)C1`, the IC50 result is recorded as “Not Active”. On the same count and under the same terms, under `O=C(/C=C/c1ccc(O)cc1)Nc1ccc(CCC(=O)N2C[C@@H](O)[C@H](O)C2)cc1` stands “Not Active”. On the same count and under the same terms, the result for `O=C(CCc1ccccc1F)N1C[C@@H](O)[C@H](O)C1` reads “Not Active”; that for `O=C(/C=C/c1ccsc1)N1C[C@@H](O)[C@H](O)C1`, “Not Active”.

Take `O=C(CCc1ccc(C(F)(F)F)cc1)Nc1ccc(CCC(=O)N2C[C@@H](O)[C@H](O)C2)cc1`: the IC50 entry is recorded as “Not Active”.

With `O=C(/C=C/c1ccc(C(F)(F)F)cc1)Nc1ccc(CCC(=O)N2C[C@@H](O)[C@H](O)C2)cc1`, the IC50 result is “Not Active”. Same read-out and setting: under `O=C(CCc1ccccc1)N1C[C@@H](O)[C@H](O)C1` stands “Not Active”; under `O=C(CCc1ccccc1F)N1C[C@H](O)[C@@H](O)C1`, “Not Active”; under `O=C(/C=C/c1ccccc1C(F)(F)F)N1C[C@@H](O)[C@H](O)C1`, “Active”. The same measure, in the same setting: the result for `O=C(CCc1ccc(F)cc1)Nc1ccc(CCC(=O)N2C[C@@H](O)[C@H](O)C2)cc1` reads “Not Active”; that for `O=C(CCc1ccccc1)N1C[C@H](O)[C@@H](O)C1`, “Not Active”; that for `O=C(/C=C/c1ccc(O)cc1)Nc1ccc(CCC(=O)N2C[C@H](O)[C@@H](O)C2)cc1`, “Not Active”.

As to `O=C(CCc1ccc(NS(=O)(=O)c2ccc(F)cc2)cc1)N1C[C@@H](O)[C@H](O)C1`, the IC50 entry was “Active”. On the same count and under the same terms, under `O=C(CCc1ccc(NS(=O)(=O)c2ccc(F)cc2)cc1)N1C[C@H](O)[C@@H](O)C1` stands “Active”; under `O=C(/C=C/c1ccc(C(F)(F)F)cc1)Nc1ccc(CCC(=O)N2C[C@H](O)[C@@H](O)C2)cc1`, “Not Active”.

Staying with this assay, now noted: read-out: IC50.
On to `Cn1c(C(=O)N2C[C@@H](O)[C@H](O)C2)cc2ccccc21`, for which the IC50 is 539 µM.

As to `Nc1ccc(CCC(=O)N2C[C@@H](O)[C@@H](O)C2)cc1`, the IC50 was found to be 302 µM. As for `O=C(CCc1ccncc1)N1C[C@H](O)[C@@H](O)C1`, the IC50 is 943 µM. As for `O=C(/C=C/c1ccccc1)N1C[C@H](O)[C@@H](O)C1`, the IC50 was determined as 747 µM. Consider `O=C(/C=C/c1ccc(F)cc1)Nc1ccc(CCC(=O)N2C[C@@H](O)[C@H](O)C2)cc1`, for which the IC50 came to 111 µM. On the same count and under the same terms, the result for `O=C(CCc1ccc(N(S(=O)(=O)c2ccc(C(F)(F)F)cc2)S(=O)(=O)c2ccc(C(F)(F)F)cc2)cc1)N1C[C@H](O)[C@@H](O)C1` reads 114 µM. Still for that read-out and setting: the result for `Nc1ccc(CCC(=O)Nc2ccc(CCC(=O)N3C[C@H](O)[C@@H](O)C3)cc2)cc1` reads 262 µM; that for `O=C(CCc1ccsc1)N1C[C@H](O)[C@@H](O)C1`, 796 µM; that for `O=C(/C=C/c1ccc(O)cc1)N1C[C@H](O)[C@@H](O)C1`, 506 µM.

Take `Nc1ccc(CCC(=O)N2C[C@H](O)[C@@H](O)C2)cc1`: the IC50 was 185 µM. `Nc1ccc(CCC(=O)Nc2ccc(CCC(=O)N3C[C@@H](O)[C@H](O)C3)cc2)cc1`: the concentration for half-maximal inhibition (IC50) was 259 µM. Same read-out and setting: under `O=C(/C=C/c1ccc(C(F)(F)F)cc1)N1C[C@@H](O)[C@H](O)C1` stands 605 µM.

Take `O=C(CCc1ccc(NS(=O)(=O)c2ccc(C(F)(F)F)cc2)cc1)N1C[C@@H](O)[C@H](O)C1`: the IC50 stood at 429 µM. Same read-out and setting: the result for `O=C(Nc1ccc(CCC(=O)N2C[C@H](O)[C@@H](O)C2)cc1)c1ccsc1` reads 495 µM; that for `O=C(CCc1ccc(NS(=O)(=O)c2ccc(C(F)(F)F)cc2)cc1)N1C[C@H](O)[C@@H](O)C1`, 463 µM. On the same count and under the same terms, under `Cn1c(C(=O)N2C[C@H](O)[C@@H](O)C2)cc2ccccc21` stands 556 µM; under `O=S(=O)(c1ccc(C(F)(F)F)cc1)N1C[C@H](O)[C@@H](O)C1`, 497 µM. The same measure, in the same setting: the result for `O=C(CCc1ccc(O)cc1)Nc1ccc(CCC(=O)N2C[C@H](O)[C@@H](O)C2)cc1` reads 98.5 µM; that for `O=C(/C=C/c1ccc(O)cc1)N1C[C@@H](O)[C@H](O)C1`, 546 µM; that for `O=C(CCc1ccc(O)cc1)N1C[C@@H](O)[C@H](O)C1`, 657 µM. As for `O=C(CCc1ccc(O)cc1)Nc1ccc(CCC(=O)N2C[C@@H](O)[C@H](O)C2)cc1`, the IC50 came to 104 µM.

For `O=C(/C=C/c1ccccc1)N1C[C@@H](O)[C@H](O)C1`, the IC50 was found to be 822 µM. Still for that read-out and setting: under `O=C(/C=C/c1ccc(C(F)(F)F)cc1)N1C[C@H](O)[C@@H](O)C1` stands 652 µM. The same measure, in the same setting: the result for `O=C(/C=C/c1ccc(F)cc1)Nc1ccc(CCC(=O)N2C[C@H](O)[C@@H](O)C2)cc1` reads 200 µM; that for `O=C(/C=C/c1ccccc1F)N1C[C@H](O)[C@@H](O)C1`, 837 µM; that for `O=C(CCc1ccsc1)N1C[C@@H](O)[C@H](O)C1`, 723 µM. `O=C(Nc1ccc(CCC(=O)N2C[C@@H](O)[C@H](O)C2)cc1)c1ccsc1`: the IC50 turned out to be 474 µM. Still for that read-out and setting: under `Cn1cc(C(=O)N2C[C@H](O)[C@@H](O)C2)c2ccccc21` stands 594 µM. On the same count and under the same terms, the result for `O=C(/C=C/c1ccc(C(F)(F)F)cc1)N1C[C@@H](O)[C@@H](O)C1` reads 638 µM. As for `O=S(=O)(c1ccc(OC(F)(F)F)cc1)N1C[C@H](O)[C@@H](O)C1`, the IC50 amounted to 228 µM. As for `C[C@H]1O[C@H](O[C@H]2[C@H](O)[C@@H](O)[C@@H](O[C@H]3[C@H](O)[C@@H](O)C(O)O[C@@H]3CO)O[C@@H]2CO)[C@H](O)[C@@H](O)[C@@H]1N[C@H]1C=C(CO)[C@@H](O)[C@H](O)[C@H]1O` (stereo not given in full) [ACARBOSE], the IC50 stood at 360 µM. For the molecule `OCC(CO)N[C@H]1C[C@](O)(CO)[C@@H](O)[C@H](O)[C@H]1O` [VOGLIBOSE], the IC50 was found to be 325 µM. The same measure, in the same setting: the result for `CC(C)(C)OC(=O)Nc1ccc(CCC(=O)N2C[C@@H](O)[C@@H](O)C2)cc1` reads 556 µM; that for `Cn1cc(C(=O)N2C[C@@H](O)[C@H](O)C2)c2ccccc21`, 531 µM; that for `O=S(=O)(c1ccc(O)cc1)N1C[C@@H](O)[C@H](O)C1`, 607 µM. On to `O=S(=O)(c1ccc(O)cc1)N1C[C@H](O)[C@@H](O)C1`, for which the 50% inhibitory concentration (IC50) was 453 µM. For the molecule `O=C(CCc1ccc(O)cc1)N1C[C@H](O)[C@@H](O)C1`, the half-inhibitory concentration (IC50) was 602 µM. Same read-out and setting: the result for `O=C(/C=C/c1ccccc1C(F)(F)F)N1C[C@H](O)[C@@H](O)C1` reads 656 µM; that for `O=C(/C=C/c1ccccc1F)N1C[C@@H](O)[C@H](O)C1`, 862 µM.

Regarding `OCCN1C[C@H](O)[C@@H](O)[C@H](O)[C@H]1CO` [MIGLITOL], the IC50 stood at 462 µM. As for `O=C(CCc1ccccc1C(F)(F)F)N1C[C@H](O)[C@@H](O)C1`, the 50% inhibitory concentration (IC50) came out at 124 µM. Same read-out and setting: the result for `O=C(CCc1ccc(C(F)(F)F)cc1)N1C[C@H](O)[C@@H](O)C1` reads 863 µM.

With `O=C(CCc1ccncc1)N1C[C@@H](O)[C@H](O)C1`, the IC50 was found to be 966 µM. On the same count and under the same terms, under `O=C(CCc1ccccc1C(F)(F)F)N1C[C@@H](O)[C@H](O)C1` stands 272 µM; under `Nc1ccc(CCC(=O)N2C[C@@H](O)[C@H](O)C2)cc1`, 108 µM; under `O=C(CCc1ccc([N+](=O)[O-])cc1)N1C[C@H](O)[C@@H](O)C1`, 772 µM.

For `O=C(CCc1ccc(C(F)(F)F)cc1)N1C[C@@H](O)[C@H](O)C1`, the IC50 came to 856 µM. Consider `O=C(CCc1ccc(C(F)(F)F)cc1)N1C[C@@H](O)[C@@H](O)C1`, for which the IC50 turned out to be 886 µM.

Another assay is filed under the species Homo sapiens. The assay is described as follows: Potency index, ratio of acarbose IC50 to compound IC50 for alpha glucosidase (unknown origin).
Conditions: not given
In the case of `O=C(CCc1ccc(O)cc1)Nc1ccc(CCC(=O)N2C[C@H](O)[C@@H](O)C2)cc1`, the Ratio IC50 fell in the range of 3 to 4. Take `O=C(CCc1ccc(O)cc1)Nc1ccc(CCC(=O)N2C[C@@H](O)[C@H](O)C2)cc1`: the Ratio IC50 was in the range of 3 to 4. In the case of `Nc1ccc(CCC(=O)N2C[C@@H](O)[C@H](O)C2)cc1`, the Ratio IC50 lay in the range of 3 to 4.

Target in another assay: not listed separately
The assay is described as follows: Inhibition of alpha glucosidase (unknown origin) using PNPG as substrate preincubated for 10 mins followed by substrate addition measured after 30 mins.
Conditions: not given
Further details: species or system Homo sapiens.
The molecule `O=C1C=C[C@H](O)N1C(=O)CCc1ccccc1` returned an IC50 of 7820 µM. As to `CO[C@H]1C=CC(=O)N1C(=O)CCc1ccccc1`, the IC50 was 430 µM.

(Values after ChEMBL document CHEMBL4020765, “Synthesis and α-glucosidase inhibition activity of dihydroxy pyrrolidines” (Bioorg Med Chem Lett, 2017).)
